Results reported in US6689922B1, “Vitamin D analogues” (Galderma Research & Development S.N.C., priority 1998, dated 2004).

Target: T1, vitamin D receptors (Mus musculus, UniProt P48281)
T1 construct: the skin treated is removed and the epidermis is separated from the dermis; from tissue; host or cells: epidermis of SKH mice (in vivo, topical application)
T1 sequence (P48281 1-422): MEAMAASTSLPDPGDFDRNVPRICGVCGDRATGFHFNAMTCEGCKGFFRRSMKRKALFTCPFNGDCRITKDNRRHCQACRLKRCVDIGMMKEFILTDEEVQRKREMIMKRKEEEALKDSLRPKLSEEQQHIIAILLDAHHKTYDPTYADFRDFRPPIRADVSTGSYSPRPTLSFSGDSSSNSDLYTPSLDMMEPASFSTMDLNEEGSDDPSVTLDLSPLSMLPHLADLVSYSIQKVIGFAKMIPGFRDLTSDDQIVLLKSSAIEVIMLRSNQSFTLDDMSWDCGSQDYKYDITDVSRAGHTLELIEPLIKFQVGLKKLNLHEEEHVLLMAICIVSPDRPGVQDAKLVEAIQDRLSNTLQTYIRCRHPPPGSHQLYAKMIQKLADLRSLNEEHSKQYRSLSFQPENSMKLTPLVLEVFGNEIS
Assay: Induction of 24-Hydroxylase mRNA in the epidermis of SKH mice after a single topical application (semiquantitative PCR)
Format: in vivo
Conditions: for Expression of the mRNA for 24-Hydroxylase: Induction factor versus ethanol: single topical application of 50 μl to the back, epidermis 8 hours after application, normalized to GAPDH mRNA
Procedure: The test protocol used is the following:
SKH mice receive a single topical application of a compound according to the invention in solution in ethanol in increasing concentrations. A volume of 50 μl of the product to be tested or of the vehicle alone is applied to the back of the mice with the aid of a pipette.
A volume of 50 μl of the product to be tested or of the vehicle alone is applied to the back of the mice with the aid of a pipette.
8 hours after the topical application, the mice are humanely killed, the skin treated is removed and the epidermis is separated from the dermis. The quantification of the mRNA for 24-Hydroxylase is carried out by semiquantitative PCR.

[1] = concentration 1 % (weight/volume) in ethanol
[2] = concentration 0.1 % (weight/volume) in ethanol

SMILES: CCC(O)(/C=C/C=C(\C)c1cccc(C=Cc2ccc(CO)c(CO)c2)c1)CC [Example 61, (4E-6E)-7-{3-[2-(3,4-bis-Hydroxymethylphenyl}vinyl]-phenyl)-3-ethylocta-4,6-dien-3-ol]
- Expression of the mRNA for 24-Hydroxylase: Induction factor versus ethanol [1]: 10

SMILES: CC/C(=C\C=C\C(O)(CC)CC)c1cccc(OCc2ccc(CO)c(CO)c2)c1 [Example 68, (4E,6E)-7-[3-(3,4-bis-Hydroxymethylbenzyloxy)phenyl]-3-ethylnona-4,6-dien-3-ol]
- Expression of the mRNA for 24-Hydroxylase: Induction factor versus ethanol [2]: 25

SMILES: CCC(O)(CC)CC/C=C(\C)c1cccc(OCc2ccc(CO)c(CO)c2)c1 [Example 72, (E)-7-[3-(3,4-bis-Hydroxymethylbenzyloxy)phenyl]-3-ethyloct-6-en-3-ol]
- Expression of the mRNA for 24-Hydroxylase: Induction factor versus ethanol [2]: 17

SMILES: CC(=CC=CC(C)(C)O)c1cccc(OCc2ccc(CO)c(CO)c2)c1 [Example 4, 6-[3-(3,4-bis-Hydroxymethylbenzyloxy)phenyl]-2-methylhepta-3,5-dien-2-ol]
- Activity (induction of 24-Hydroxylase mRNA) compared with 1,25-(OH)2-vitamin D3 (at the concentration of 1%, single topical application, SKH mice): comparable to that of 1,25-(OH)2-vitamin D3 at 0.001%
- Expression of the mRNA for 24-Hydroxylase: Induction factor versus ethanol [1]: 11

SMILES: CCC(O)(/C=C/C=C(\C)c1cccc(COc2ccc(CO)c(CO)c2)c1)CC [Example 82, (4E,6E)-7-[3-(3,4-bis-Hydroxymethylphenoxy-methyl)phenyl]-3-ethylocta-4,6-dien-3-ol]
- Expression of the mRNA for 24-Hydroxylase: Induction factor versus ethanol [2]: 21

SMILES: CCC(O)(/C=C/C=C(\C)c1cccc(CCc2ccc(CO)c(CO)c2)c1)CC [Example 59, (4E,6E)-7-{3-[2-(3,4-bis-Hydroxymethylphenyl)ethyl]-phenyl}-3-ethylocta-4,6-dien-3-ol]
- Expression of the mRNA for 24-Hydroxylase: Induction factor versus ethanol [2]: 20.5

SMILES: CCC(O)(/C=C/C=C(\C)c1cccc(OCc2ccc(CO)c(CO)c2)c1)CC [Example 65, (4E,6E)-7-[3-(3,4-bis-Hydroxymethylbenzyloxy)phenyl]-3-ethylocta-4,6-dien-3-ol]
- Expression of the mRNA for 24-Hydroxylase: Induction factor versus ethanol [1]: 15
